Measurements as given in ChEMBL document CHEMBL1201862, “PubChem BioAssay data set” (2004).
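48-hour exposure; five concentrations; linearly interpolated endpoints. GI50 = concentration required for 50% inhibition of growth.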 The source made the active and inactive calls. No stated cut-off is given here; in the data, active = GI50 up to about 1.1 µM and inactive = higher.

Assays:
Assay in all cases: DTP human tumour cell line panel, 48 h
HT-29 = tested on: HT-29
EKVX = tested on: EKVX
HCT-15 = tested on: HCT-15
SF-268 = tested on: SF-268
KM12 = tested on: KM12
TK-10 = tested on: TK-10
SW-620 = tested on: SW-620
NCI-H460 = tested on: NCI-H460
RPMI-8226 = tested on: RPMI-8226
RXF 393 = tested on: RXF 393
NCI-H522 = tested on: NCI-H522
HL-60 = tested on: HL-60
SK-OV-3 = tested on: SK-OV-3
ACHN = tested on: ACHN
Malme-3M = tested on: Malme-3M
SF-295 = tested on: SF-295
SR = tested on: SR

Structure (SMILES)	GI50 (HT-29)	GI50 (EKVX)	GI50 (HCT-15)	GI50 (SF-268)	GI50 (KM12)	GI50 (TK-10)	GI50 (SW-620)	GI50 (NCI-H460)	GI50 (RPMI-8226)	GI50 (RXF 393)	GI50 (NCI-H522)	GI50 (HL-60)	GI50 (SK-OV-3)	GI50 (ACHN)	GI50 (Malme-3M)	GI50 (SF-295)	GI50 (SR)
O=c1[nH]c2cc([N+](=O)[O-])ccc2nc1/C(=N/Nc1ccccc1)C(O)c1ccccc1Cl (configuration not stated)	46 µM (inactive)	67.3 µM (inactive)	7.8 µM	> 100 µM (inactive)	27.8 µM (inactive)	> 100 µM (inactive)	41.9 µM (inactive)	49.2 µM (inactive)	52.4 µM (inactive)	> 100 µM (inactive)	4.68 µM (inactive)	> 100 µM (inactive)	> 100 µM (inactive)	17.5 µM (inactive)	85.3 µM (inactive)	43.3 µM (inactive)	–
O=S(O)CCCSSCCCCSSCCCS(=O)O	> 100 µM (inactive)	34.4 µM (inactive)	> 100 µM	> 100 µM (inactive)	> 100 µM (inactive)	> 100 µM (inactive)	> 100 µM (inactive)	> 100 µM (inactive)	–	> 100 µM (inactive)	> 100 µM (inactive)	–	> 100 µM (inactive)	> 100 µM (inactive)	> 100 µM (inactive)	> 100 µM (inactive)	–
COc1ccc(/C=C2\CCCCC2=O)cc1	> 100 µM (inactive)	> 100 µM (inactive)	> 100 µM	> 100 µM (inactive)	–	> 100 µM (inactive)	> 100 µM (inactive)	> 100 µM (inactive)	–	–	–	> 100 µM (inactive)	> 100 µM (inactive)	> 100 µM (inactive)	–	> 100 µM (inactive)	–
CC(=O)N1CCc2[nH]c3ccccc3c2CC1	> 100 µM (inactive)	> 100 µM (inactive)	> 100 µM	–	> 100 µM (inactive)	> 100 µM (inactive)	> 100 µM (inactive)	> 100 µM (inactive)	> 100 µM (inactive)	–	–	> 100 µM (inactive)	> 100 µM (inactive)	> 100 µM (inactive)	> 100 µM (inactive)	> 100 µM (inactive)	–
O=[N+]([O-])c1ccc(-c2ccc(/C=N/n3c(S)nnc3-c3ccc(Cl)cc3)o2)cc1	22 µM (inactive)	> 100 µM (inactive)	22.6 µM	24.7 µM (inactive)	22.8 µM (inactive)	31 µM (inactive)	29 µM (inactive)	21.5 µM (inactive)	16.6 µM (inactive)	–	28.6 µM (inactive)	51.2 µM (inactive)	> 40.7 µM (inactive)	26 µM (inactive)	17.4 µM (inactive)	24.1 µM (inactive)	22.3 µM (inactive)
[O-]c1c2cc(-[n+]3c(-c4ccccc4)cc(-c4ccccc4)cc3-c3ccccc3)cc1COCCOCCOCCOCCOC2	35.6 µM (inactive)	33.9 µM (inactive)	73.6 µM	29 µM (inactive)	20.4 µM (inactive)	57.5 µM (inactive)	48.9 µM (inactive)	–	–	–	35.6 µM (inactive)	31.8 µM (inactive)	57.8 µM (inactive)	> 100 µM (inactive)	34.2 µM (inactive)	43.8 µM (inactive)	26.2 µM (inactive)
Cc1cc(N(CCC#N)CCC#N)ccc1/C=C/C(=O)Nc1cccc(Cl)c1	> 100 µM (inactive)	> 100 µM (inactive)	38.5 µM	> 100 µM (inactive)	> 100 µM (inactive)	> 100 µM (inactive)	> 100 µM (inactive)	> 100 µM (inactive)	> 100 µM (inactive)	–	62.7 µM (inactive)	51.3 µM (inactive)	> 100 µM (inactive)	57.3 µM (inactive)	> 100 µM (inactive)	> 100 µM (inactive)	–
CN(C)CCCN1N=Nc2cccc3cccc1c23	33.3 µM (inactive)	> 100 µM (inactive)	38.1 µM	> 85.9 µM (inactive)	> 79.3 µM (inactive)	> 100 µM (inactive)	24.3 µM (inactive)	33.1 µM (inactive)	> 51.1 µM (inactive)	–	50.9 µM (inactive)	30.3 µM (inactive)	> 100 µM (inactive)	56.1 µM (inactive)	> 100 µM (inactive)	> 90.8 µM (inactive)	26.5 µM (inactive)
Cc1cc(CC(O)c2ccc(Cl)c(Cl)c2)nc(O)n1 (configuration not stated)	46.9 µM (inactive)	29.8 µM (inactive)	30.7 µM	38.5 µM (inactive)	36.4 µM (inactive)	86.9 µM (inactive)	36.1 µM (inactive)	34.8 µM (inactive)	71.9 µM (inactive)	–	20.2 µM (inactive)	31 µM (inactive)	35.2 µM (inactive)	31.3 µM (inactive)	81.8 µM (inactive)	30.3 µM (inactive)	24.7 µM (inactive)
N=C(N)NS(=O)(=O)c1ccc(NC(=O)c2cccc3c(Nc4ccc(S(=O)(=O)N=C(N)N)cc4)c4ccc(Cl)cc4nc23)cc1	> 100 µM (inactive)	96.8 µM (inactive)	> 100 µM	48.4 µM (inactive)	> 100 µM (inactive)	> 100 µM (inactive)	62.4 µM (inactive)	76.2 µM (inactive)	43.9 µM (inactive)	> 100 µM (inactive)	30.4 µM (inactive)	–	32.1 µM (inactive)	49.7 µM (inactive)	64.4 µM (inactive)	> 100 µM (inactive)	–
O=C(O)C#CCO	> 100 µM (inactive)	> 100 µM (inactive)	> 100 µM	> 100 µM (inactive)	> 100 µM (inactive)	> 100 µM (inactive)	> 100 µM (inactive)	> 100 µM (inactive)	> 100 µM (inactive)	> 100 µM (inactive)	> 100 µM (inactive)	> 100 µM (inactive)	> 100 µM (inactive)	> 100 µM (inactive)	> 100 µM (inactive)	> 100 µM (inactive)	–
COc1ccccc1NC(=O)C(CC(C(=O)Nc1ccccc1OC)/C(C)=N/NC(=O)c1ccccc1O)/C(C)=N/NC(=O)c1ccccc1O (configuration not stated)	> 100 µM (inactive)	72.9 µM (inactive)	–	> 100 µM (inactive)	> 100 µM (inactive)	> 100 µM (inactive)	88.5 µM (inactive)	57.9 µM (inactive)	59.8 µM (inactive)	38.8 µM (inactive)	64.4 µM (inactive)	47.5 µM (inactive)	> 100 µM (inactive)	98.6 µM (inactive)	> 100 µM (inactive)	59.7 µM (inactive)	–
O=[N+]([O-])c1cccc(C2=NN(c3ccccc3)C3c4ccccc4OCC23)c1 (configuration not stated)	> 100 µM (inactive)	> 100 µM (inactive)	–	> 100 µM (inactive)	> 100 µM (inactive)	> 100 µM (inactive)	> 100 µM (inactive)	> 100 µM (inactive)	> 100 µM (inactive)	> 100 µM (inactive)	62.1 µM (inactive)	66.1 µM (inactive)	> 100 µM (inactive)	> 100 µM (inactive)	> 100 µM (inactive)	> 100 µM (inactive)	–
C/C(CC(=O)Nc1cc(C)ccc1C)=N/N=C(N)N	> 100 µM (inactive)	> 100 µM (inactive)	–	> 100 µM (inactive)	> 100 µM (inactive)	> 100 µM (inactive)	> 100 µM (inactive)	> 100 µM (inactive)	> 100 µM (inactive)	> 100 µM (inactive)	> 100 µM (inactive)	> 100 µM (inactive)	> 100 µM (inactive)	> 100 µM (inactive)	> 100 µM (inactive)	> 100 µM (inactive)	–
